One assay concerns the target T1, hNTS2 receptor (Homo sapiens, UniProt O95665).
T1 construct: membranes prepared from them
Briefly: Competitive radioligand binding assay on the hNTS2 receptor. The following applies: for IC50: displacement of 125I-[Tyr3]-NT, membranes of 1321N1 cells expressing hNTS2, read-out: IC50 NTS2 (converted); for Selectivity: ratio IC50 for NTS1 : IC50 for NTS2. Summed up: (§1)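 Membranes from CHO-K1 cells expressing hNTS1 (15 µg, […] ¹²⁵I-[Tyr³]-NT) or 1321N1 cells expressing hNTS2 (50 µg, […] radioligand) were incubated with analogues at 10⁻¹¹–10⁻⁴ M for 60 min at 25 °C in Tris-HCl pH 7.5/0.2% BSA. Filtration and γ-counting followed; nonspecific binding was defined with 10⁻⁵ M NT(8-13), and IC50 was obtained by one-site fit.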

Another assay concerns the target T2, hNTS1 receptor (Homo sapiens, UniProt P30989).
T2 construct: membranes prepared from them
The assay is described as follows: Competitive radioligand binding assay on the hNTS1 receptor. Particulars: displacement of 125I-[Tyr3]-NT, membranes of CHO-K1 cells expressing hNTS1; read-out: IC50 NTS1. Summed up:
as §1
On the technique in general: Loss of bound radioactivity is the signal in a displacement assay; it reports binding, not function.

The structures appear in SMILES notation. Where a SMILES comes first, the peptide text is derived from it. Bridges are numbered along the chain shown (N, C = ends). [ ]: non-standard residue; d: D form. Bip = N[C@@H](Cc1ccc(-c2ccccc2)cc1)C(=O)O; Dip = N[C@H](C(=O)O)C(c1ccccc1)c1ccccc1; Ala(cPent) = N[C@@H](CC1CCCC1)C(=O)O; 2Thi = N[C@@H](Cc1cccs1)C(=O)O; Cit = NC(=O)NCCC[C@H](N)C(=O)O; AllylGly = C=CC[C@H](N)C(=O)O; Cba = N[C@@H](CC1CCC1)C(=O)O; Pen = CC(C)(S)[C@H](N)C(=O)O; hLys = NCCCCC[C@H](N)C(=O)O Bounds are passed on as bounds.

T1 sequence (O95665 whole entry): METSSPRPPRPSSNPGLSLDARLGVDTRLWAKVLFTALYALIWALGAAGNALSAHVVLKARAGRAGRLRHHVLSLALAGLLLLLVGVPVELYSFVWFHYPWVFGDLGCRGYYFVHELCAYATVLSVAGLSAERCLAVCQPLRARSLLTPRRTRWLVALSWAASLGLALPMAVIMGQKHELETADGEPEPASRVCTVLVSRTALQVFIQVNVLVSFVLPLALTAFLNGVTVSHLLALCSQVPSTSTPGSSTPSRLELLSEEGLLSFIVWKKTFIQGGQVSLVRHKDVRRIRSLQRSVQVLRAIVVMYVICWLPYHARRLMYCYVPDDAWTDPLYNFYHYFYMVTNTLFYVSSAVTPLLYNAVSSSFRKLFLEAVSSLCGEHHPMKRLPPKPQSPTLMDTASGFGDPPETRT
T2 sequence (P30989 whole entry): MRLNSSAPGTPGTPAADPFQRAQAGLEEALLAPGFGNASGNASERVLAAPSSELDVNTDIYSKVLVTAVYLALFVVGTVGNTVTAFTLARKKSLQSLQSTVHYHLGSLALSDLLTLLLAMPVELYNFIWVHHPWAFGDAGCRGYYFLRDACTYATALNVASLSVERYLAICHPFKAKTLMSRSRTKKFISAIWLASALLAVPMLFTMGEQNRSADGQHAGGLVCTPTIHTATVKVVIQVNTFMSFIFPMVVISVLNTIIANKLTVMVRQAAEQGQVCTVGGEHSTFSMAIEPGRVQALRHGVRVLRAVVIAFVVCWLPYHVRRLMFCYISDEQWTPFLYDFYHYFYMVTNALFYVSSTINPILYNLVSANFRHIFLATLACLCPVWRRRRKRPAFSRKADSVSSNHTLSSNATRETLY

As for `CC(C)C[C@H](NC(=O)[C@H](Cc1ccc(O)cc1)NC(=O)C1(C)CCCC=CCCC(=O)N[C@@H](CCCCN)C(=O)N[C@@H](CCCCN)C(=O)N1)C(=O)O` (stereo partly drawn) [compound 132, c[K(Pentenoyl)KG(alpha-Me-(4-pentenyl))]YL], the IC50 on hNTS2 receptor was 0.136 µM; on hNTS1 receptor, > 100 µM. In addition, the Selectivity at hNTS2 receptor is 733.
With `NCCCC[C@@H]1NC(=O)CCC=CC[C@@H](C(=O)N[C@@H](Cc2ccc(Br)cc2)C(=O)N[C@@H](CC2CCCC2)C(=O)O)NC(=O)[C@H](CCCCN)NC1=O` [compound 134, cK([Pentenoyl)KG(All)]F(4-bromo)A (cyclopentyl)], at hNTS2 receptor, the 50% inhibitory concentration (IC50) was 0.0177 µM and the Selectivity is on record as 5650. The concentration for half-maximal inhibition (IC50) on hNTS1 receptor was > 100 µM.
Turning to `CC1(C(=O)N[C@@H](Cc2ccc(O)cc2)C(=O)N[C@@H](CC2CCCC2)C(=O)O)CCCC=CCCC(=O)N[C@@H](CCCCN)C(=O)N[C@@H](CCCCN)C(=O)N1` (stereo partly drawn) [compound 135, c[K(Pentenoyl)KG(alpha-Me-(4-pentenyl))]YA(cyclopentyl)], at hNTS2 receptor, the 50% inhibitory concentration (IC50) is 0.0459 µM and the Selectivity was determined as 2179. The IC50 on hNTS1 receptor is > 100 µM.
With `CC(C)C[C@H](NC(=O)[C@H](Cc1ccc(Br)cc1)NC(=O)C1(C)CCCC=CCCC(=O)N[C@@H](CCCCN)C(=O)N[C@@H](CCCCN)C(=O)N1)C(=O)O` (stereo partly drawn) [compound 136, c[PentenoylKKG(alpha-Me-(4-pentenyl))]F(4-bromo)L], on hNTS2 receptor, the concentration for half-maximal inhibition (IC50) was 0.0377 µM and the Selectivity is recorded as 2653. In addition, at hNTS1 receptor, the IC50 is > 100 µM.
On to `CC1(C(=O)N[C@@H](Cc2ccc(Br)cc2)C(=O)N[C@@H](CC2CCCC2)C(=O)O)CCCC=CCCC(=O)N[C@@H](CCCCN)C(=O)N[C@@H](CCCCN)C(=O)N1` (stereo partly drawn) [compound 137, c[K(Pentenoyl)KG(alpha-Me-(4-pentenyl))]F(4-bromo)A (cyclopentyl)], for which, on hNTS2 receptor, the IC50 was 0.0096 µM and the Selectivity is on record as 10428. In addition, the half-maximal inhibitory concentration (IC50) on hNTS1 receptor is > 100 µM.
As for `CC(C)C[C@H](NC(=O)[C@H](C)NC(=O)[C@@H]1CC=CC[C@H](N)C(=O)N[C@@H](CCCCN)C(=O)N[C@@H](CCCCN)C(=O)N1)C(=O)O` [compound 138, c[G(All)KKG(All)]AL] (H-[AllylGly]KK[AllylGly]AL-OH; staple 1-4), on hNTS2 receptor, the IC50 was 0.582 µM and the Selectivity is listed as 172. In addition, the IC50 on hNTS1 receptor is > 100 µM.
Consider `CC(C)C[C@H](NC(=O)[C@H](Cc1ccc(-c2ccccc2)cc1)NC(=O)[C@@H]1CC=CC[C@H](N)C(=O)N[C@@H](CCCCN)C(=O)N[C@@H](CCCCN)C(=O)N1)C(=O)O` [compound 139, c[G(All)KKG(All)]A (biphenyl)L] (H-[AllylGly]KK[AllylGly][Bip]L-OH; staple 1-4), for which the 50% inhibitory concentration (IC50) at hNTS2 receptor was 0.0485 µM; at hNTS1 receptor it was > 100 µM. For the same compound, the Selectivity at hNTS2 receptor is 2061.
Regarding `CC(C)C[C@H](NC(=O)[C@@H](NC(=O)[C@@H]1CC=CC[C@H](N)C(=O)N[C@@H](CCCCN)C(=O)N[C@@H](CCCCN)C(=O)N1)C(c1ccccc1)c1ccccc1)C(=O)O` [compound 140, c[G(All)KKG(All)]A (diphenyl)L] (H-[AllylGly]KK[AllylGly][Dip]L-OH; staple 1-4), on hNTS2 receptor, the IC50 was 0.631 µM and the Selectivity is listed as 158. Besides, at hNTS1 receptor, the half-inhibitory concentration (IC50) is > 100 µM.
Taken in the same sequence, the figures for `CC(C)C[C@H](NC(=O)[C@H](CC1CCCC1)NC(=O)[C@@H]1CC=CC[C@H](N)C(=O)N[C@@H](CCCCN)C(=O)N[C@@H](CCCCN)C(=O)N1)C(=O)O` [compound 142, c[G(All)KKG(All)]A (cyclopentyl)L] (H-[AllylGly]KK[AllylGly][Ala(cPent)]L-OH; staple 1-4) were 0.204 µM, 490 and > 100 µM.
Take `CC(C)C[C@H](NC(=O)[C@H](CC1CCC1)NC(=O)[C@@H]1CC=CC[C@H](N)C(=O)N[C@@H](CCCCN)C(=O)N[C@@H](CCCCN)C(=O)N1)C(=O)O` [compound 143, c[G(All)KKG(All)]A (cyclobutyl)L] (H-[AllylGly]KK[AllylGly][Cba]L-OH; staple 1-4): the values for the IC50 on hNTS2 receptor and at hNTS1 receptor were 0.276 µM and > 100 µM, respectively. On hNTS2 receptor, the Selectivity is 362.
As for `CC(C)C[C@H](NC(=O)[C@H](Cc1ccc(O)cc1)NC(=O)[C@@H]1CC=CC[C@H](N)C(=O)N[C@@H](CCCCN)C(=O)N[C@@H](CCCNC(N)=O)C(=O)N1)C(=O)O` [compound 146, c[G(All)KcitrullineG(All)]YL] (H-[AllylGly]K[Cit][AllylGly]YL-OH; staple 1-4), the 50% inhibitory concentration (IC50) is 0.698 µM at hNTS2 receptor and > 100 µM on hNTS1 receptor. Further, the Selectivity at hNTS2 receptor is 143.
For `CC(C)C[C@H](NC(=O)[C@H](Cc1ccc(O)cc1)NC(=O)[C@@H]1CC=CC[C@H](N)C(=O)N[C@@H](CCCNC(N)=O)C(=O)N[C@@H](CCCCN)C(=O)N1)C(=O)O` [compound 147, c[G(All)citrullineKG(All)]YL] (H-[AllylGly][Cit]K[AllylGly]YL-OH; staple 1-4), on hNTS2 receptor, the concentration for half-maximal inhibition (IC50) was 0.6 µM and the Selectivity was 167. The IC50 on hNTS1 receptor was > 100 µM.
`CC(C)C[C@H](NC(=O)[C@H](Cc1ccc(O)cc1)NC(=O)[C@@H]1CC=CC[C@H](N)C(=O)N[C@@H](CCCNC(N)=O)C(=O)N[C@@H](CCCNC(N)=O)C(=O)N1)C(=O)O` [compound 148, c[G(All)citrulline-citrullineG (All)]YL] (H-[AllylGly][Cit][Cit][AllylGly]YL-OH; staple 1-4): on hNTS2 receptor, the IC50 is 7.9 µM and the Selectivity was 13. The half-inhibitory concentration (IC50) at hNTS1 receptor was > 100 µM.
As to `CC(C)C[C@H](NC(=O)[C@H](Cc1ccc(O)cc1)NC(=O)[C@@H]1CC=CC[C@H](N)C(=O)N[C@@H](CCCCN)C(=O)N[C@@H](CCCCCN)C(=O)N1)C(=O)O` [compound 149, c[G(All)KhomolysineG(All)]YL] (H-[AllylGly]K[hLys][AllylGly]YL-OH; staple 1-4), the 50% inhibitory concentration (IC50) was 0.214 µM at hNTS2 receptor and > 100 µM at hNTS1 receptor. In addition, the Selectivity at hNTS2 receptor turned out to be 468.
In the same order, the values of `CC(C)C[C@H](NC(=O)[C@H](Cc1ccc(O)cc1)NC(=O)[C@@H]1CC=CC[C@H](N)C(=O)N[C@@H](CCCCCN)C(=O)N[C@@H](CCCCN)C(=O)N1)C(=O)O` [compound 150, c[G(All)homolysineKG(All)]YL] (H-[AllylGly][hLys]K[AllylGly]YL-OH; staple 1-4) are 0.187 µM, > 100 µM and 533.
For the compound `CC(C)C[C@H](NC(=O)[C@H](Cc1ccc(O)cc1)NC(=O)[C@@H]1CC=CC[C@H](N)C(=O)N[C@@H](CCCCCN)C(=O)N[C@@H](CCCCCN)C(=O)N1)C(=O)O` [compound 151, c[G(All)K(homo)K (homo)G(All)]YL] (H-[AllylGly][hLys][hLys][AllylGly]YL-OH; staple 1-4), the IC50 at hNTS2 receptor was 0.104 µM; on hNTS1 receptor, > 100 µM. The Selectivity at hNTS2 receptor was found to be 962.
Take `CC(C)C[C@H](NC(=O)[C@H](Cc1ccc(O)cc1)NC(=O)[C@@H]1CSSC[C@H](N)C(=O)N[C@@H](CCCCN)C(=O)N[C@@H](CCCCN)C(=O)N1)C(=O)O` [compound 152, c[CKKC]YL] (H-CKKCYL-OH; disulfide 1-4): on hNTS2 receptor, the IC50 was 1.4 µM and the Selectivity came to 7. Moreover, the half-maximal inhibitory concentration (IC50) at hNTS1 receptor is > 1000 µM.
Take `CC(C)C[C@H](NC(=O)[C@H](Cc1ccc(O)cc1)NC(=O)[C@H]1NC(=O)[C@H](CCCCN)NC(=O)[C@H](CCCCN)NC(=O)[C@@H](N)CSSC1(C)C)C(=O)O` [compound 153, c[CKKPen]YL] (H-CKK[Pen]YL-OH; disulfide 1-4): the IC50 at hNTS2 receptor was 0.0348 µM; at hNTS1 receptor it was > 100 µM. The Selectivity on hNTS2 receptor was found to be 2871.
In the same order, the values of `CC(C)C[C@H](NC(=O)[C@H](Cc1ccc(O)cc1)NC(=O)[C@@H]1CSSC(C)(C)[C@H](N)C(=O)N[C@@H](CCCCN)C(=O)N[C@@H](CCCCN)C(=O)N1)C(=O)O` [compound 154, c[PenKKC]YL] (H-[Pen]KKCYL-OH; disulfide 1-4) are 1.2 µM, > 100 µM and 81.
With `CC(C)C[C@H](NC(=O)[C@H](Cc1ccc(O)cc1)NC(=O)[C@H]1NC(=O)[C@H](CCCCN)NC(=O)[C@H](CCCCN)NC(=O)[C@@H](N)C(C)(C)SSC1(C)C)C(=O)O` [compound 155, c[(Pen)KK(Pen)]YL] (H-[Pen]KK[Pen]YL-OH; disulfide 1-4), on hNTS2 receptor, the IC50 is 0.318 µM and the Selectivity came to 315. Also, on hNTS1 receptor, the IC50 is > 100 µM.
In the same order, the values of `CC(C)C[C@H](NC(=O)[C@H](Cc1ccc(O)cc1)NC(=O)[C@@H]1CC=CC[C@H](NC(=O)[C@@H](N)CCCCN)C(=O)N[C@@H](CCCCN)C(=O)N[C@@H](CCCCN)C(=O)N1)C(=O)O` [compound 156, Kc[G(All)KKG(All)]YL] (H-K[AllylGly]KK[AllylGly]YL-OH; staple 2-5) are 0.0066 µM, 15244 and > 100 µM.
As for `CC(C)C[C@H](NC(=O)[C@H](Cc1cccs1)NC(=O)[C@@H]1CC=CC[C@H](N)C(=O)N[C@@H](CCCCN)C(=O)N[C@@H](CCCCN)C(=O)N1)C(=O)O` [compound 159, c[G(All)KKG(All)]A(2-thienyl)L] (H-[AllylGly]KK[AllylGly][2Thi]L-OH; staple 1-4), at hNTS2 receptor, the IC50 was 0.09 µM and the Selectivity stood at 1112. Moreover, the IC50 at hNTS1 receptor is > 100 µM.

As a reminder, the IC50 is the midpoint of a concentration-inhibition curve.
